# Legend:
# HSV-1 = assay: In vitro HSV-1 replication (plaque reduction) assay, EC50 and SI50 estimates; type: cell-based; parameters: unit not given beside the values; details: HFF cells infected with HSV-1
# [1] = In vivo toxicity studies in mice (NIH/NIAID preclinical service)
# Experimental: A control group was treated with PBS. […] No signs of distress or significant weight loss were observed during the 4 days of treatment. […]
# B. In vivo toxicity studies in mice for bPEI 600 and DAB-Am-4. Experiments were conducted through NIAID/NIH preclinical service agreement No HHSN272201700017I/ […]
# Procedures and Endpoints:
# 1- Baseline weights of all mice
# 2- IP treatment (twice a day, for 4 days)
# 3- Daily assessment of weights and condition
# 4- All animals sacrificed the following morning after the last evening treatment 5- Blood samples collected by IC stick for lab tests (liver, spleen and blood profiles) 6- Internal organs examined for signs of gross tissue toxicity
# 1. Toxicity evaluation of bPEI 600 Da in mice.
# A toxicity screen was performed in uninfected mice treated with 3 doses of bPEI 600 Da, administered for 4 days. In this study, 3 doses of 5, 10 and 25 mg/kg/day were administered twice daily IP for 4 days (n=4/group). A control group was treated with the vehicle (PBS). The mice were examined daily and the weights and general condition were recorded daily. To examine liver, renal and blood function parameters, blood samples were obtained by intracardiac puncture at the end of the study (the following day after last dose) and the mice were sacrificed to examine the internal organs for signs of gross tissue toxicity.
# The weights were recorded
# In order to confirm the results of the lab results obtained in the toxicity study, a second group of slightly larger mice were treated with the high and the low doses of bPEI 600 Da (25 mg/kg and 5 mg/kg, n=6/group) and the vehicle control (PBS, n=4) for 4 days. Blood samples were collected at the end of the study for liver and renal chemistry profiles. The results are shown in the next […]
# REN AL PBS 5 mg/kg 25 mg/kg
# LIVER PBS 5 mg/kg 25 mg/kg
# Al b:Gl ob R a ti o 1 1 1 […]
# obtained from the second group of mice treated with bPEI 600 Da for 4 days.
# No signs of distress or significant weight loss were ere observed during the […]
# show significant differences with the results obtained in the PBS treated group of control mice.
# Statistical analysis: Means were compared by Student’s t test, and mortality was compared by Fisher’s exact test, where applicable.
# Ethics regulation of Laboratory animals: Animals were housed in facilities approved by the Association for Assessment and Accreditation of Laboratory Animal Care and Use Committee
# 2. Toxicity evaluation of DAB-Am-4 in mice.
# A toxicity screen in uninfected mice was performed. 2 doses of 5 and 25 mg/kg/day were administered twice daily IP for 4 days (n=6/group). A control group was treated with the vehicle […]
# The mice were examined daily and the weights and general condition were recorded. […]
# [2] = mice, 5 mg/kg/day twice daily IP, 4 days, Mean, CBC (n=1-2)
# [3] = mice, 5 mg/kg/day twice daily IP, 4 days, Mean, LIVER (n=5)
# [4] = mice, 5 mg/kg/day twice daily IP, 4 days, Mean, RENAL (n=5)
structure (smiles),measurement,setting,value
Nc1nc2c(ncn2COCCO)c(=O)[nH]1 [Acyclovir],SI50,HSV-1,~ 10^2
NCCCN(CCCN)CCCN(CCCCN(CCCN(CCCN)CCCN)CCCN(CCCN)CCCN)CCCN(CCCN)CCCN [DAB-Am-8],signs of acute toxicity (lab tests),"[1]; mice, 5 and 25 mg/kg/day DAB-Am-4, 5 mg/kg/day DAB-Am-8",no conclusive signs of acute toxicity
same,signs of distress during the observation period,"[1]; mice, low dose 5 mg/kg/day",no significant signs
same,%Lymphocyte,[1]; [2],75%
same,Hematocrit,[1]; [2],42
same,WBC,[1]; [2],6
same,AST,[1]; [3],437
same,Alb:Glob Ratio,[1]; [3],2
same,Albumin,[1]; [3],3
same,Amylase,[1]; [3],730
same,Bile Acids,[1]; [3],238
same,Cholesterol,[1]; [3],61
same,Creatine Kinase,[1]; [3],3149
same,GGT,[1]; [3],< 1
same,Globin,[1]; [3],2
same,Total Protein,[1]; [3],4
same,Triglyceride,[1]; [3],114
same,BUN,[1]; [4],22
same,Ca:Phos Ratio,[1]; [4],1
same,Calcium,[1]; [4],8
same,Chloride,[1]; [4],111
same,Glucose,[1]; [4],204
same,K,[1]; [4],7
same,Na,[1]; [4],147
same,Na:K Ratio,[1]; [4],22
same,Phosphorus,[1]; [4],9
same,Uric Acid,[1]; [4],2
same,toxicity,"[1]; mouse, in vivo, 25 mg/kg/day",displayed toxicity
